ChEMBL document CHEMBL3885861, “Open TG-GATES”
“And” between values parts separate entries of the source, which are not always exact repeats. Equal entries are not always repeated.

Species on record: Rattus norvegicus
Assay: Open TG-GATES - Regimen: Single
Assay type: toxicity, organism-based, Sprague-Dawley
Parameters: regimen Single, gender Male, age 6 weeks
Conditions: in vivo, po, route gavage; for ALT / AST / BUN / CRE / Ca / Cl / GLC / IP / K / LDH / Na / PL / RALB / TC / TG / TP / A/G / ALP / DBIL / TBIL / gamma-GTP: tissue Plasma; for APTT / Bas / Eos / Fbg / Hb / Ht / Lym / MCH / MCHC / MCV / Mono / Neu / PT / Plat / RBC / Ret / WBC: tissue Blood; for KIDNEY_L / KIDNEY_R / KIDNEY_TOTAL: tissue Kidney; for LIVER: tissue Liver
[1] = 0 mg/kg, 24 h, dose level Control

O=C1CN(/N=C/c2ccc([N+](=O)[O-])o2)C(=O)N1 [NITROFURANTOIN]
ALT [1]: 40.2 IU/L and 32.2 IU/L
AST [1]: 67 IU/L and 61.8 IU/L
BUN [1]: 15.6 mg/dL and 16 mg/dL
CRE [1]: 0.4 mg/dL
Ca [1]: 10.9 mg/dL and 11.3 mg/dL
Cl [1]: 101.4 meq/L and 105.8 meq/L
GLC [1]: 211.2 mg/dL and 198.2 mg/dL
IP [1]: 7.6 mg/dL and 9.2 mg/dL
K [1]: 4 meq/L and 4.4 meq/L
LDH [1]: 161.6 IU/L and 69.4 IU/L
Na [1]: 140 meq/L and 141 meq/L
PL [1]: 149.8 mg/dL and 148.2 mg/dL
RALB [1]: 3.2 g/dL and 3.9 g/dL
TC [1]: 76.4 mg/dL and 80.6 mg/dL
TG [1]: 110 mg/dL and 123 mg/dL
TP [1]: 5.6 g/dL and 5.5 g/dL
TERMINAL_BW (10 mg/kg, 3 h, dose level Low): 221.7 g
APTT (10 mg/kg, 3 h, dose level Low): 20.2 s
Bas (10 mg/kg, 3 h, dose level Low): 0%
Eos (10 mg/kg, 3 h, dose level Low): 1.2%
Fbg (10 mg/kg, 3 h, dose level Low): 216.6 mg/dL
Hb (10 mg/kg, 3 h, dose level Low): 13.5 g/dL
Ht (10 mg/kg, 3 h, dose level Low): 38.5%
Lym (10 mg/kg, 3 h, dose level Low): 77%
MCH (10 mg/kg, 3 h, dose level Low): 21.5 pg
MCHC (10 mg/kg, 3 h, dose level Low): 35.1%
MCV (10 mg/kg, 3 h, dose level Low): 61.3 fL
Mono (10 mg/kg, 3 h, dose level Low): 3%
Neu (10 mg/kg, 3 h, dose level Low): 17.4%
PT (10 mg/kg, 3 h, dose level Low): 12.5 s
Plat (10 mg/kg, 3 h, dose level Low): 112.9 x10_4/uL
RBC (10 mg/kg, 3 h, dose level Low): 628.8 x10_4/ul
Ret (10 mg/kg, 3 h, dose level Low): 7.4%
WBC (10 mg/kg, 3 h, dose level Low): 88.6 x10_2/uL
KIDNEY_L (10 mg/kg, 3 h, dose level Low): 1 g
KIDNEY_R (10 mg/kg, 3 h, dose level Low): 1 g
KIDNEY_TOTAL (10 mg/kg, 3 h, dose level Low): 2 g
LIVER (10 mg/kg, 3 h, dose level Low): 10.3 g
A/G (10 mg/kg, 3 h, dose level Low): 1.6
ALP (10 mg/kg, 3 h, dose level Low): 999 IU/L
ALT (10 mg/kg, 3 h, dose level Low): 42.2 IU/L
AST (10 mg/kg, 3 h, dose level Low): 69.6 IU/L
BUN (10 mg/kg, 3 h, dose level Low): 12.2 mg/dL
CRE (10 mg/kg, 3 h, dose level Low): 0.3 mg/dL
Ca (10 mg/kg, 3 h, dose level Low): 10.8 mg/dL
Cl (10 mg/kg, 3 h, dose level Low): 101.8 meq/L
DBIL (10 mg/kg, 3 h, dose level Low): 0.076 mg/dL
GLC (10 mg/kg, 3 h, dose level Low): 194.8 mg/dL
IP (10 mg/kg, 3 h, dose level Low): 8.7 mg/dL
K (10 mg/kg, 3 h, dose level Low): 3.9 meq/L
LDH (10 mg/kg, 3 h, dose level Low): 198.6 IU/L
Na (10 mg/kg, 3 h, dose level Low): 141 meq/L
PL (10 mg/kg, 3 h, dose level Low): 141.2 mg/dL
RALB (10 mg/kg, 3 h, dose level Low): 3.3 g/dL
TBIL (10 mg/kg, 3 h, dose level Low): 0.1 mg/dL
TC (10 mg/kg, 3 h, dose level Low): 81 mg/dL
TG (10 mg/kg, 3 h, dose level Low): 67.4 mg/dL
TP (10 mg/kg, 3 h, dose level Low): 5.4 g/dL
gamma-GTP (10 mg/kg, 3 h, dose level Low): 0.8 IU/L
TERMINAL_BW (10 mg/kg, 6 h, dose level Low): 217.9 g
APTT (10 mg/kg, 6 h, dose level Low): 19.4 s
Bas (10 mg/kg, 6 h, dose level Low): 0%
Eos (10 mg/kg, 6 h, dose level Low): 1%
Fbg (10 mg/kg, 6 h, dose level Low): 222.2 mg/dL
Hb (10 mg/kg, 6 h, dose level Low): 13.6 g/dL
Ht (10 mg/kg, 6 h, dose level Low): 38.4%
Lym (10 mg/kg, 6 h, dose level Low): 76.2%
MCH (10 mg/kg, 6 h, dose level Low): 21.6 pg
MCHC (10 mg/kg, 6 h, dose level Low): 35.3%
MCV (10 mg/kg, 6 h, dose level Low): 61 fL
Mono (10 mg/kg, 6 h, dose level Low): 2.8%
Neu (10 mg/kg, 6 h, dose level Low): 18.4%
PT (10 mg/kg, 6 h, dose level Low): 12.7 s
Plat (10 mg/kg, 6 h, dose level Low): 121.4 x10_4/uL
RBC (10 mg/kg, 6 h, dose level Low): 629.8 x10_4/ul
Ret (10 mg/kg, 6 h, dose level Low): 7.6%
WBC (10 mg/kg, 6 h, dose level Low): 96.2 x10_2/uL
KIDNEY_L (10 mg/kg, 6 h, dose level Low): 1 g
KIDNEY_R (10 mg/kg, 6 h, dose level Low): 1 g
KIDNEY_TOTAL (10 mg/kg, 6 h, dose level Low): 2 g
LIVER (10 mg/kg, 6 h, dose level Low): 9.9 g
A/G (10 mg/kg, 6 h, dose level Low): 1.7
ALP (10 mg/kg, 6 h, dose level Low): 930.6 IU/L
ALT (10 mg/kg, 6 h, dose level Low): 32 IU/L
AST (10 mg/kg, 6 h, dose level Low): 61 IU/L
BUN (10 mg/kg, 6 h, dose level Low): 11.4 mg/dL
CRE (10 mg/kg, 6 h, dose level Low): 0.4 mg/dL
Ca (10 mg/kg, 6 h, dose level Low): 10.7 mg/dL
Cl (10 mg/kg, 6 h, dose level Low): 102.8 meq/L
DBIL (10 mg/kg, 6 h, dose level Low): 0.088 mg/dL
GLC (10 mg/kg, 6 h, dose level Low): 194.2 mg/dL
IP (10 mg/kg, 6 h, dose level Low): 8.8 mg/dL
K (10 mg/kg, 6 h, dose level Low): 4.2 meq/L
LDH (10 mg/kg, 6 h, dose level Low): 175.8 IU/L
Na (10 mg/kg, 6 h, dose level Low): 140.6 meq/L
PL (10 mg/kg, 6 h, dose level Low): 140.8 mg/dL
RALB (10 mg/kg, 6 h, dose level Low): 3.5 g/dL
TBIL (10 mg/kg, 6 h, dose level Low): 0.1 mg/dL
TC (10 mg/kg, 6 h, dose level Low): 75 mg/dL
TG (10 mg/kg, 6 h, dose level Low): 77.6 mg/dL
TP (10 mg/kg, 6 h, dose level Low): 5.5 g/dL
gamma-GTP (10 mg/kg, 6 h, dose level Low): 0.6 IU/L
TERMINAL_BW (10 mg/kg, 9 h, dose level Low): 215.9 g
APTT (10 mg/kg, 9 h, dose level Low): 18.5 s
Bas (10 mg/kg, 9 h, dose level Low): 0%
Eos (10 mg/kg, 9 h, dose level Low): 1%
Fbg (10 mg/kg, 9 h, dose level Low): 226.2 mg/dL
Hb (10 mg/kg, 9 h, dose level Low): 13.3 g/dL
Ht (10 mg/kg, 9 h, dose level Low): 37.5%
Lym (10 mg/kg, 9 h, dose level Low): 79.6%
MCH (10 mg/kg, 9 h, dose level Low): 21.9 pg
MCHC (10 mg/kg, 9 h, dose level Low): 35.5%
MCV (10 mg/kg, 9 h, dose level Low): 61.8 fL
Mono (10 mg/kg, 9 h, dose level Low): 2.6%
Neu (10 mg/kg, 9 h, dose level Low): 15.8%
PT (10 mg/kg, 9 h, dose level Low): 12.7 s
Plat (10 mg/kg, 9 h, dose level Low): 112.8 x10_4/uL
RBC (10 mg/kg, 9 h, dose level Low): 607 x10_4/ul
Ret (10 mg/kg, 9 h, dose level Low): 7.3%
WBC (10 mg/kg, 9 h, dose level Low): 86.5 x10_2/uL
KIDNEY_L (10 mg/kg, 9 h, dose level Low): 1 g
KIDNEY_R (10 mg/kg, 9 h, dose level Low): 1 g
KIDNEY_TOTAL (10 mg/kg, 9 h, dose level Low): 2 g
LIVER (10 mg/kg, 9 h, dose level Low): 9.4 g
A/G (10 mg/kg, 9 h, dose level Low): 1.6
ALP (10 mg/kg, 9 h, dose level Low): 712.8 IU/L
ALT (10 mg/kg, 9 h, dose level Low): 32.2 IU/L
AST (10 mg/kg, 9 h, dose level Low): 56.2 IU/L
BUN (10 mg/kg, 9 h, dose level Low): 10.2 mg/dL
CRE (10 mg/kg, 9 h, dose level Low): 0.3 mg/dL
Ca (10 mg/kg, 9 h, dose level Low): 10.4 mg/dL
Cl (10 mg/kg, 9 h, dose level Low): 103 meq/L
DBIL (10 mg/kg, 9 h, dose level Low): 0.068 mg/dL
GLC (10 mg/kg, 9 h, dose level Low): 197.2 mg/dL
IP (10 mg/kg, 9 h, dose level Low): 9.4 mg/dL
K (10 mg/kg, 9 h, dose level Low): 3.8 meq/L
LDH (10 mg/kg, 9 h, dose level Low): 205.2 IU/L
Na (10 mg/kg, 9 h, dose level Low): 140.6 meq/L
PL (10 mg/kg, 9 h, dose level Low): 140 mg/dL
RALB (10 mg/kg, 9 h, dose level Low): 3.4 g/dL
TBIL (10 mg/kg, 9 h, dose level Low): 0.1 mg/dL
TC (10 mg/kg, 9 h, dose level Low): 79.8 mg/dL
TG (10 mg/kg, 9 h, dose level Low): 51.2 mg/dL
TP (10 mg/kg, 9 h, dose level Low): 5.5 g/dL
gamma-GTP (10 mg/kg, 9 h, dose level Low): 0.6 IU/L
TERMINAL_BW (10 mg/kg, 24 h, dose level Low): 233.4 g
APTT (10 mg/kg, 24 h, dose level Low): 18.6 s
Bas (10 mg/kg, 24 h, dose level Low): 0%
